Measured values taken from PubChem BioAssay AID1963448 (Molecular Pharmacology Branch, DTP, NCI, 2024).
Values joined by “and” are separate entries in the source; they are usually repeats but may differ in a detail not shown here. Equal values may be shown once.

System: 616215-338-R-J1-PDC complex spheroid growth, % test/control
Assay: Anticancer human tumor 616215-338-R-J1-PDC patient-derived colon adenocarcinoma cell line growth inhibition [Asc]
Conditions: for viability, T/C: stronger effect = lower value; active means viability on the fitted dose curve at most 10% of control; inactive means the rest
In short: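 Tumor cells were grown as complex spheroids with human endothelial cells (HUVEC) and human mesenchymal stem cells as stroma. Agents were tested alone and in combination, in half-log steps down from the clinical Cmax, or from 10 microM where Cmax was unknown.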

[1] = curve of first compound, second compound 0.1 µM
[2] = curve of first compound, second compound 0.316 µM
[3] = curve of first compound, second compound 1 µM
[4] = curve of first compound, second compound 3.16 µM
[5] = curve of first compound, second compound 10 µM
[6] = second compound 0.1 µM, first compound 0.00316 µM
[7] = second compound 0.1 µM, first compound 0.01 µM
[8] = second compound 0.1 µM, first compound 0.0316 µM
[9] = second compound 0.1 µM, first compound 0.1 µM
[10] = second compound 0.1 µM, first compound 0.316 µM
[11] = second compound 0.1 µM, first compound 1 µM
[12] = second compound 0.316 µM, first compound 0.00316 µM
[13] = second compound 0.316 µM, first compound 0.01 µM
[14] = second compound 0.316 µM, first compound 0.0316 µM
[15] = second compound 0.316 µM, first compound 0.1 µM
[16] = second compound 0.316 µM, first compound 0.316 µM
[17] = second compound 0.316 µM, first compound 1 µM
[18] = second compound 1 µM, first compound 0.00316 µM
[19] = second compound 1 µM, first compound 0.01 µM
[20] = second compound 1 µM, first compound 0.0316 µM
[21] = second compound 1 µM, first compound 0.1 µM
[22] = second compound 1 µM, first compound 0.316 µM
[23] = second compound 1 µM, first compound 1 µM
[24] = second compound 3.16 µM, first compound 0.00316 µM
[25] = second compound 3.16 µM, first compound 0.01 µM
[26] = second compound 3.16 µM, first compound 0.0316 µM
[27] = second compound 3.16 µM, first compound 0.1 µM
[28] = second compound 3.16 µM, first compound 0.316 µM
[29] = second compound 3.16 µM, first compound 1 µM
[30] = second compound 10 µM, first compound 0.00316 µM
[31] = second compound 10 µM, first compound 0.01 µM
[32] = second compound 10 µM, first compound 0.0316 µM
[33] = second compound 10 µM, first compound 0.1 µM
[34] = second compound 10 µM, first compound 0.316 µM
[35] = second compound 10 µM, first compound 1 µM
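Further: spheroids exposed to agents for seven days before readout.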
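Wherever viability, T/C is given: 100% = DMSO vehicle control viability.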

CNC(C)C(=O)NC1CN(S(=O)(=O)c2cccc(S(=O)(=O)N3CCC4CCC(C(=O)NC(c5ccccc5)c5ccccc5)N4C(=O)C(NC(=O)C(C)NC)C3)c2)CCC2CCC(C(=O)NC(c3ccccc3)c3ccccc3)N2C1=O (stereo not given) + Cc1c(S(C)(=O)=O)c(-c2cc(F)cc(N3CCN(c4ccc(NS(=O)(=O)c5ccc(NC(CCN6CCC(C(=O)OCCCP(=O)(O)O)CC6)CSc6ccccc6)c(S(=O)(=O)C(F)(F)F)c5)cc4)CC3)c2)c(-c2ccc(Cl)cc2)n1C(C)C
inactive: viability, T/C [6] 94% | viability, T/C [7] 99.3% | viability, T/C [8] 92.2% | viability, T/C [9] 94.8% | viability, T/C [10] 100% | viability, T/C [11] 97.5% | viability, T/C [12] 96.8% | viability, T/C [13] 97.4% | viability, T/C [14] 92% | viability, T/C [15] 97% | viability, T/C [16] 87.9% | viability, T/C [17] 94.7% | viability, T/C [18] 73.1% | viability, T/C [19] 76% | viability, T/C [20] 73.2% | viability, T/C [21] 76% | viability, T/C [22] 69.6% | viability, T/C [23] 68.7% | viability, T/C [24] 45.5% | viability, T/C [25] 40% | viability, T/C [26] 40.1% | viability, T/C [27] 39.5% | viability, T/C [28] 36.2% | viability, T/C [29] 28.6% | viability, T/C [30] 26.5% | viability, T/C [31] 23.9% | viability, T/C [32] 27.9% | viability, T/C [33] 26.4% | viability, T/C [34] 22.4% | viability, T/C [35] 19.1%
< 3.16 nM: IC50 [4] | IC50 [5]
> 1000 nM: IC50 [1] | IC50 [2] | IC50 [3]

C#Cc1c(F)ccc2cc(O)cc(-c3ncc4c(N5CC6CCC(C5)N6)nc(OCC56CCCN5CC(F)C6)nc4c3F)c12 (stereo not given)
3120 nM and > 10000 nM: IC50 (curve of compound)
inactive: viability, T/C (compound 0.0316 µM) 105% and 96.2% and 99% | viability, T/C (compound 0.1 µM) 96% and 104% and 102% | viability, T/C (compound 0.316 µM) 104% (2×) and 94.8% | viability, T/C (compound 1 µM) 106% and 113% and 101% | viability, T/C (compound 3.16 µM) 49.3% and 108% and 101%

COc1c(OCCCN2CCOCC2)ccc2c3n(c(=NC(=O)c4cnc(N)nc4)nc12)CCN3 + CNC(C)C(=O)NC1CN(S(=O)(=O)c2cccc(S(=O)(=O)N3CCC4CCC(C(=O)NC(c5ccccc5)c5ccccc5)N4C(=O)C(NC(=O)C(C)NC)C3)c2)CCC2CCC(C(=O)NC(c3ccccc3)c3ccccc3)N2C1=O
inactive: viability, T/C (second compound 0.00316 µM, first compound 0.00316 µM) 107% | viability, T/C (second compound 0.00316 µM, first compound 0.01 µM) 83.5% | viability, T/C (second compound 0.00316 µM, first compound 0.0316 µM) 68.8% | viability, T/C (second compound 0.00316 µM, first compound 0.1 µM) 30.4% | viability, T/C (second compound 0.00316 µM, first compound 0.316 µM) 14.9% | viability, T/C (second compound 0.01 µM, first compound 0.00316 µM) 98.6% | viability, T/C (second compound 0.01 µM, first compound 0.01 µM) 101% | viability, T/C (second compound 0.01 µM, first compound 0.0316 µM) 64% | viability, T/C (second compound 0.01 µM, first compound 0.1 µM) 32.5% | viability, T/C (second compound 0.0316 µM, first compound 0.00316 µM) 94.1% | viability, T/C (second compound 0.0316 µM, first compound 0.01 µM) 97.8% | viability, T/C (second compound 0.0316 µM, first compound 0.0316 µM) 59.5% | viability, T/C (second compound 0.0316 µM, first compound 0.1 µM) 26.1% | viability, T/C [6] 101% | viability, T/C [7] 92.4% | viability, T/C [8] 56.7% | viability, T/C [9] 30.4% | viability, T/C [10] 14.1% | viability, T/C [12] 93.4% | viability, T/C [13] 97.8% | viability, T/C [14] 65.1% | viability, T/C [15] 27.7% | viability, T/C [16] 15.3% | viability, T/C [18] 87.4% | viability, T/C [19] 89.4% | viability, T/C [20] 52.8% | viability, T/C [21] 26.8% | viability, T/C [22] 16.8% | viability, T/C [23] 6.17%
54.9 nM: IC50 (curve of first compound, second compound 0.01 µM)
40.3 nM: IC50 [3]
47 nM: IC50 (curve of first compound, second compound 0.0316 µM)
52.4 nM: IC50 [2]
active: viability, T/C (second compound 0.00316 µM, first compound 1 µM) 2.9% | viability, T/C (second compound 0.01 µM, first compound 0.316 µM) 9.38% | viability, T/C (second compound 0.01 µM, first compound 1 µM) 2.23% | viability, T/C (second compound 0.0316 µM, first compound 0.316 µM) 14.3% | viability, T/C (second compound 0.0316 µM, first compound 1 µM) 1.77% | viability, T/C [11] 1.87% | viability, T/C [17] 3.07%
53.3 nM: IC50 (curve of first compound, second compound 0.00316 µM)
46.4 nM: IC50 [1]

COc1c(OCCCN2CCOCC2)ccc2c3n(c(=NC(=O)c4cnc(N)nc4)nc12)CCN3 + Cc1c(S(C)(=O)=O)c(-c2cc(F)cc(N3CCN(c4ccc(NS(=O)(=O)c5ccc(NC(CCN6CCC(C(=O)OCCCP(=O)(O)O)CC6)CSc6ccccc6)c(S(=O)(=O)C(F)(F)F)c5)cc4)CC3)c2)c(-c2ccc(Cl)cc2)n1C(C)C
185 nM: IC50 [2]
231 nM: IC50 [1]
< 3.16 nM: IC50 [5]
inactive: viability, T/C [6] 93.1% | viability, T/C [7] 100% | viability, T/C [8] 100% | viability, T/C [9] 88.2% | viability, T/C [10] 35.5% | viability, T/C [12] 90.5% | viability, T/C [13] 96.7% | viability, T/C [14] 105% | viability, T/C [15] 81.1% | viability, T/C [16] 22.2% | viability, T/C [18] 71.7% | viability, T/C [19] 78.3% | viability, T/C [20] 78.6% | viability, T/C [21] 60.6% | viability, T/C [24] 45.4% | viability, T/C [25] 53.2% | viability, T/C [26] 63% | viability, T/C [27] 22.1% | viability, T/C [30] 28.8% | viability, T/C [31] 30.3% | viability, T/C [32] 35.4% | viability, T/C [33] 4.88%
36.4 nM: IC50 [4]
active: viability, T/C [11] 7.35% | viability, T/C [17] 2.69% | viability, T/C [22] 7.07% | viability, T/C [23] 0.53% | viability, T/C [28] 1.45% | viability, T/C [29] 0.19% | viability, T/C [34] 0.24% | viability, T/C [35] 0.29%
126 nM: IC50 [3]

Cc1c(S(C)(=O)=O)c(-c2cc(F)cc(N3CCN(c4ccc(NS(=O)(=O)c5ccc(NC(CCN6CCC(C(=O)OCCCP(=O)(O)O)CC6)CSc6ccccc6)c(S(=O)(=O)C(F)(F)F)c5)cc4)CC3)c2)c(-c2ccc(Cl)cc2)n1C(C)C (stereo not given)
inactive: viability, T/C (compound 0.1 µM) 89.8% [middle of 14 runs] | viability, T/C (compound 0.316 µM) 88.1% [middle of 14 runs] | viability, T/C (compound 1 µM) 69.6% [middle of 14 runs] | viability, T/C (compound 3.16 µM) 38% [middle of 13 runs] | viability, T/C (compound 10 µM) 27.6% [middle of 14 runs]
1.96 µM [middle of 13 runs]: IC50 (compound alone, run of 10/11/2022)

NC(=O)C(=Cn1cnc(-c2cc(C(F)(F)F)cc(C(F)(F)F)c2)n1)c1cncnc1
inactive: viability, T/C (compound 0.000949 µM) 97.1% and 89.2% and 43.2% | viability, T/C (compound 0.003 µM) 96.8% and 85% and 52.7% | viability, T/C (compound 0.00949 µM) 99.3% and 95.9% and 24.4% | viability, T/C (compound 0.03 µM) 100% and 86.7% and 29.2% | viability, T/C (compound 0.0949 µM) 95.2% and 81.8% and 20.7% | viability, T/C (compound 0.3 µM) 97.6% and 91.7% and 30.1%
